The supplement of paper PMC12076712
± gives the standard deviation of the averaged measurements.

Tests used:
Test in all cases: pIC50, kinobeads binding competition
Settings in all cases: cell material: Jurkat lysate
UniProt Q15418 = target: UniProt Q15418
BMPR1A = BMPR1A (UniProt P36894)
UniProt Q14004 = target: UniProt Q14004
MAST4 = MAST4 (UniProt O15021)
STK33 = STK33 (UniProt Q9BYT3)
UniProt P49841 = target: UniProt P49841
LIMK2 = LIMK2 (UniProt P53671)
UniProt Q16513 = target: UniProt Q16513
UniProt P35626 = target: T1, UniProt P35626
T1 sequence (whole entry): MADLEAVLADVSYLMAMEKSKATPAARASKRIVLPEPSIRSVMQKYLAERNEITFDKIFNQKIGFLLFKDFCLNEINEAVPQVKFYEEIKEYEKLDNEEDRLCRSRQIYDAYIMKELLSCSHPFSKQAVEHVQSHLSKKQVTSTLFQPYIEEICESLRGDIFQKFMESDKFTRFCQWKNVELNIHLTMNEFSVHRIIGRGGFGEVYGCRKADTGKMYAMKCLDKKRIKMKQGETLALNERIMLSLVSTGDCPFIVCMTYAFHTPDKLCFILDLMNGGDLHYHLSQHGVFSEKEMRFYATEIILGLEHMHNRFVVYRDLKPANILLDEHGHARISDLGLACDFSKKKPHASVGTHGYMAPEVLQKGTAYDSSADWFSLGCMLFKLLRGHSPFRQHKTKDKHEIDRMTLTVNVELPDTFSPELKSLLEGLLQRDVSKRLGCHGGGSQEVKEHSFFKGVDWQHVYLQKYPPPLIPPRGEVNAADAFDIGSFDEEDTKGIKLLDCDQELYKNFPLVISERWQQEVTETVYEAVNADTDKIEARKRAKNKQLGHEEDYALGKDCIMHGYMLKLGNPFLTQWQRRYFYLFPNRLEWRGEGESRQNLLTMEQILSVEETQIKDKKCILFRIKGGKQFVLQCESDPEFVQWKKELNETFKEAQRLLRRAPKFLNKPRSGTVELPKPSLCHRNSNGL

UniProt Q15208 = target: UniProt Q15208
UniProt P19784 = target: UniProt P19784
UniProt P27448 = target: UniProt P27448
UniProt P78527 = target: UniProt P78527
LATS1 = target: T2, LATS1 (UniProt O95835)
T2 sequence (whole entry): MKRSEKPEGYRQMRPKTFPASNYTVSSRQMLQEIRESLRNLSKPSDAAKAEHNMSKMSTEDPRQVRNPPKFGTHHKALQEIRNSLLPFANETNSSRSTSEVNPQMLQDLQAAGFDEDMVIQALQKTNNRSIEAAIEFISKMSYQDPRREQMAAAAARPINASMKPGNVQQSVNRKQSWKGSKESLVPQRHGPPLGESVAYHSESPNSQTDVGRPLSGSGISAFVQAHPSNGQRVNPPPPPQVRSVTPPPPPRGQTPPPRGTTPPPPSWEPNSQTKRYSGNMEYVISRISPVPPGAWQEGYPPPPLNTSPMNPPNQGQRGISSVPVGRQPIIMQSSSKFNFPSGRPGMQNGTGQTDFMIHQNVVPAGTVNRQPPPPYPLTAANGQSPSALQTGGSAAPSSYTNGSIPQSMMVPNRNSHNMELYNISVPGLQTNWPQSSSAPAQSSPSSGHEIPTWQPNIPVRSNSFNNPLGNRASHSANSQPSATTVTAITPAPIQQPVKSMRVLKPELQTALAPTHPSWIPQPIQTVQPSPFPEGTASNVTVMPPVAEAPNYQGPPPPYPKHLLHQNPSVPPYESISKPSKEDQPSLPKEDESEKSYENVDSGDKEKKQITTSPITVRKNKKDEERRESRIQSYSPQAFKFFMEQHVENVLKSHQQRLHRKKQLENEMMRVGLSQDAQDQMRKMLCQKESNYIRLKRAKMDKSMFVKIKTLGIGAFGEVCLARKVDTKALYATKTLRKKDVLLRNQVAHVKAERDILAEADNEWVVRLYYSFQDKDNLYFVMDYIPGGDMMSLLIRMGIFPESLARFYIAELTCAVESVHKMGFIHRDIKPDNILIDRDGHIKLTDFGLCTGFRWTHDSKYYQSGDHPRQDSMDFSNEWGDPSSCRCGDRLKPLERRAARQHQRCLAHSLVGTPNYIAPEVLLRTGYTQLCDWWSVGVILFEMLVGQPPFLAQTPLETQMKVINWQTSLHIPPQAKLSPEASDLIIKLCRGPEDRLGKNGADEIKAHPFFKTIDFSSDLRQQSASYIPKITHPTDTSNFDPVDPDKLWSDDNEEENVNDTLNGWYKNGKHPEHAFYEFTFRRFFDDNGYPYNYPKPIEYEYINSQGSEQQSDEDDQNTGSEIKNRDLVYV

UniProt Q16659 = target: UniProt Q16659
UniProt Q92918 = target: UniProt Q92918
AAK1 = AAK1 (UniProt Q2M2I8)
UniProt Q5TCX8 = target: UniProt Q5TCX8

CCc1cnn2c(NCc3ccc[n+]([O-])c3)cc(N3CCCC[C@H]3CCO)nc12 [dinaciclib]
pIC50 (UniProt Q15418): < 4.52
pIC50 (BMPR1A): < 4.52
pIC50 (UniProt Q14004): 7.42 ± 0.28
pIC50 (MAST4): < 4.52
pIC50 (STK33): < 4.52
pIC50 (UniProt P49841): < 4.52
pIC50 (LIMK2): < 4.52
pIC50 (UniProt Q16513): < 4.52
pIC50 (UniProt P35626): < 4.52
pIC50 (UniProt Q15208): < 4.52
pIC50 (UniProt P19784): < 4.52
pIC50 (UniProt P27448): < 4.52
pIC50 (UniProt P78527): < 4.52
pIC50 (LATS1): < 4.52
pIC50 (UniProt Q16659): < 4.52
pIC50 (UniProt Q92918): < 4.52
pIC50 (AAK1): < 4.52
pIC50 (UniProt Q5TCX8): < 4.52
